# Data reported in a melting point compilation (Tetko et al.; mined from patent text by program, amines drawn as free bases though some values may be those of a salt).
row,Compound,melting point
1,Cc1ccc(-c2nccc3c(C#N)cccc23)cc1,132 °C
2,C=CCOC(=O)C1CC(=O)N(C2CC(C)(C)N(C)C(C)(C)C2)C1 (configuration not stated),48 to 49 °C
3,O=C1C(=Cc2cccnc2)CCc2ccc(Br)cc21,124 to 125 °C
4,CN(C)C(C)(C)c1ccc(-c2nc(Nc3ccc(F)cc3)ncc2C#N)cc1,179 °C
5,COc1ccc(-c2c(Cl)c(Cn3cncn3)nc3sc4c(c23)CCN(Cc2ccccc2)C4)cc1OC,165 to 166 °C
6,CCN1c2ncc(CN(C)c3ccccc3)cc2C(=O)N(C)c2ccc(Cl)nc21,55 to 57 °C
7,Cc1cc(C(C)C(=O)O)ccc1C(=O)c1cccs1 (configuration not stated),100 °C
8,CC/C=C/CONC(=O)c1nc(-c2ccc(Cl)c(OC)c2F)cc(N)c1Cl,145 to 147 °C
9,CCOC(=O)c1[nH]cc2c1NC1=C(C(=O)CCC1)C2c1ccc(Sc2nc3ccc(F)c(F)c3[nH]2)o1 (configuration not stated),144 to 148 °C
10,Nc1ncnc2c1ncn2CC(/C=C/P(=O)(O)O)CO (configuration not stated),> 300 °C
11,CCN(CC)C(=O)c1cc2cc(OC)c(OC)cc2c(-c2ccccc2)n1,134 °C
12,CC(C)(C)OC(=O)CNS(=O)(=O)c1ccc(N2CCC(NC[C@H](O)c3ccc(O)c(NS(C)(=O)=O)c3)CC2)cc1,113 to 115 °C
13,Cc1cc(Cl)c(C)c(S(=O)(=O)Nc2onc(C)c2Br)c1,148 to 150 °C
14,CNC(=O)N(N)CC(C)O (configuration not stated),99 to 101 °C
15,COC(=O)C1=C2Nc3ccccc3C23CCNC3CC1 (configuration not stated),145 to 148 °C
16,CC1(C)CCC(C)(C)c2cc(-c3ccc(-c4ccccc4)c(-c4ccc(C(=O)O)cc4)c3)ccc21,233 to 235 °C
17,COc1cc(Cc2cnc(N)nc2N)cc(OC(C)C(C)=O)c1OC (configuration not stated),168 °C
18,CON(C)C(=O)C(Cc1c[nH]c2ccccc12)NC(=O)OC(C)(C)C (configuration not stated),129 to 130 °C
19,N#Cc1ccc(C(=C2C3CC4CC(C3)CC2C4)c2ncc[nH]2)cc1,155 °C
20,Cc1cc(C=NNC(N)=S)ncc1[N+](=O)[O-],220 to 222 °C
21,Cc1cnc(C#N)c(Cl)n1,63 to 65 °C
22,CCNC(=O)c1c(C)cccc1[Si](C)(C)C,64 to 66 °C
23,Cc1ccc2nc(C)c(CCN3CCN(c4cccc(Cl)c4)CC3)c(=O)n2c1,127 to 128 °C
24,COc1ccc(OC)c(COc2ccc3nc[nH]c(=O)c3c2)c1,155 to 158 °C
25,O=C(Cc1ccc(C(F)(F)F)cc1)NCc1ccc2c(c1)CN(C1CCC(=O)NC1=O)C2=O (configuration not stated),217 to 219 °C
26,N#Cc1sc(Cl)c(Cl)c1Cl,63 to 64 °C

row,Compound,melting point
1,CN(C[C@H]1CC[C@H](c2nc3ccccc3n2C)CC1)C(=O)OCc1ccccc1,141 to 142 °C
2,Nc1c([N+](=O)[O-])cnn1-c1c(F)c(F)c(C(F)(F)F)c(F)c1F,123 to 126 °C
3,Cc1ccc(C(=O)c2c(O)c3cc(C)ccc3[nH]c2=S)cc1,280 °C
4,NS(=O)(=O)c1cc2cc(-c3nc(C(F)(F)F)c[nH]3)ccc2s1,285 to 286 °C
5,Cn1cc(-c2cc3cccnc3[nH]2)c2cc(OC3(C(=O)O)CCC3)ccc21,168 to 169 °C
6,CN(c1cccc2cc(C3=NCC4(CCOCC4)S3)[nH]c12)S(=O)(=O)c1cccs1,189 to 191 °C
7,CCOC1Nc2c(ccc(C)c2O)C(=O)N2CCCC12 (configuration not stated),155 to 157 °C
8,CC1Cc2c(N3CCCC3CO)c(F)cc3c(=O)c(C(=O)O)cn1c23 (configuration not stated),235 to 237 °C
9,CCOCc1nc2c(N)nc(C)c(C)c2n1NCc1ccccc1,149 to 151 °C
10,COc1ccc2c(c1)CCC(=O)NC2c1ccccc1 (configuration not stated),185 to 186 °C
11,Cc1nc(-c2cn(Cc3ccc(C(F)(F)F)cc3)nn2)sc1C(=O)NCc1cccnc1,204 to 205 °C
12,CC(=O)N1C(=O)N(c2ccc(C#N)c(C(F)(F)F)c2)C(=O)C1(C)C,129 to 130 °C
13,CCOC(Cc1ccc(OCCOC2c3ccccc3CCc3ccccc32)cc1)C(=O)O (configuration not stated),148 to 150 °C
14,Fc1ccc(-c2n[nH]cc2-c2ccnc(NCc3ccccc3)n2)cc1,216 to 217 °C
15,CC(CC(=O)c1ccc(C(N)=S)cc1)C(=O)N1CCC(OCC(=O)OC(C)(C)C)CC1 (racemic),152 to 155 °C
16,CCCOc1ccc(S(=O)(=O)N2CCN(CCOC(C)=O)CC2)cc1-c1nc2c(CCC)cn(CC)c2c(=O)[nH]1,139 to 140 °C
17,CCCN1N=C2C(=Cc3cccc(C(F)(F)F)c3)CSCC2C1c1cccc(C(F)(F)F)c1 (configuration not stated),90 to 93.5 °C
18,CN(C)C(=O)CSc1nc2ccccc2cc1-c1ccccc1,86 to 89 °C
19,OCCCCCCCCCCCCCCCCCCCCCCC(F)(F)C(F)(F)C(F)(F)C(F)(F)F,69 to 71 °C
20,CCn1nc(-c2ncc(N)nc2-c2ccccc2)ccc1=O,227 to 229 °C
21,Oc1cc(Br)c(-c2c3ccccc3c(Br)c3sc4ccccc4c23)cc1O,138 to 140 °C
22,[N-]=[N+]=NC[C@H]1O[C@H]([C@H](O)CO)[C@H](O)[C@@H]1O,86 °C
23,Cc1cc(C)c2nc3sccn3c(=O)c2c1,190 to 192 °C
24,COc1ccc(C2Nc3ccccc3-c3c([N+](=O)[O-])cnn32)cc1 (configuration not stated),181 to 183 °C
25,NC(=O)c1ccc2[nH]cc(C3=CCNCC3)c2c1,225 to 230 °C
26,CS(=O)(=O)Nc1ccc(OCCCI)cc1,109 to 111 °C

row,Compound,melting point
1,CSc1nc(NC2CC2)nc(Cl)c1C#N,139 to 141 °C
2,S=Cc1cccc(Cl)c1Cc1ccccc1,68 to 70 °C
3,Cc1nnc(F)c(-c2c(F)cc(F)cc2F)c1-c1ccc2ccccc2c1,108 to 110 °C
4,COc1ccc(-c2cccc(-c3nc(-c4ccc(C(F)(F)F)cc4)oc3C)c2)cc1,93 to 94 °C
5,COc1ccc(C=NS(=O)(=O)c2ccc(C)cc2)cc1,127 °C
6,O=C(O)Cc1ccc2c(c1)-c1ccccc1C2,166 to 168 °C
7,CCOC(=O)c1csc(-c2cccc([N+](=O)[O-])c2)n1,142 to 145 °C
8,Cc1c(Cl)cnc(N)c1F,136 to 138 °C
9,Nc1ccc(F)c(-n2cc(C(=O)O)c(=O)c3cc(F)c(F)c(Cl)c32)n1,228 to 230 °C
10,CNC(=O)c1cc(O)cc2c1N(C)C1N(C)CCC21C (configuration not stated),202 to 204 °C
11,COc1ccc(C(=O)N[C@H]2CCN(C)C[C@H]2c2ccc3c(c2)OCO3)cc1OC (relative stereo),193 to 194 °C
12,CSCC(C)Nc1nccc(-c2ccnc(Nc3cccc(F)c3)c2)n1 (configuration not stated),104 to 107 °C
13,Cc1ccc(S(=O)(=O)OCC2COc3ccc4nccnc4c3O2)cc1 (configuration not stated),124 to 127 °C
14,COc1cccc(N2CCN(C[C@H]3COc4ccc5nc(C)ccc5c4O3)CC2)c1,90 to 91 °C
15,CCC(OC(=O)C1CC1)c1ccc(Cl)c2nc3n(c12)CCCN3c1ccc(OC)nc1C (configuration not stated),149 to 151 °C
16,OCc1ccc2ncc(C(=S)NCc3ccc(Cl)cc3)c(O)c2c1,240 to 242 °C
17,O=C(O)Cc1ccc(-n2cc(F)cn2)c(Cl)c1,110 to 112 °C
18,CC(C)(C)c1cc(-c2nn(CC(=O)N3CCOCC3)c3ncccc23)cc(C(C)(C)C)c1O,207 to 209 °C
19,COC(=O)C1C=CCn2c(=O)n(CCl)c(=O)n21 (configuration not stated),164 to 165 °C
20,CC12CCC3c4ccc(Cl)cc4CCC3C1CCC2NCc1cccc(C(F)(F)F)c1 (configuration not stated),97 to 101 °C
21,COc1ccc(C(=O)c2cccc3c2CCC3C#N)cc1 (configuration not stated),109 to 112 °C
22,Cc1cn(C)cc(-c2cccc(Cl)c2)c1=O,143 to 144 °C
23,CC1(C)OC(c2ccc(S(N)(=O)=O)cc2)=C(c2cccc(C(F)(F)F)c2)C1=O,129 to 130 °C
24,N#CCSc1cc(F)cc(F)c1N,66 to 67 °C
25,C=C1C(=C)C2C(CCC3(C)C2CCC3(O)C(C)=O)C2(C)CCC(=O)C=C12 (configuration not stated),274 to 276 °C
26,CCOC(=O)c1cn2c(nc1=O)CCC2C (configuration not stated),130 °C

row,Compound,melting point
1,Cc1ccc(S(=O)(=O)NC(=O)Nc2ccc(Br)c(C)c2)cc1,178 to 180 °C
2,N#Cc1c(Cl)[nH]c2ccccc12,177 to 180 °C
3,O=C1CCC(c2ccc(O)cc2)CC1,165 to 166 °C
4,Cc1ccc(CC(CNC(=O)C(C)c2ccc(NS(C)(=O)=O)c(F)c2)COC(=O)C(C)(C)C)cc1C (configuration not stated),46 to 48 °C
5,CCN(CC)C(=O)CN1C(=O)C(NC(=O)Nc2ccc(Cl)cc2)N=C(c2ccccc2)c2ccccc21 (configuration not stated),284 to 285 °C
6,CCOCCOCCn1c(C=O)cc2c3c(c(-c4ccccc4Cl)cc21)C(=O)NC3=O,162 to 165 °C
7,CCOC(=O)CC1(c2ccccc2)CNC(=O)C1 (configuration not stated),49 to 51 °C
8,CC(=O)OCCOC(=O)C1=C(C)NC(C)=C(C(=O)CS(=O)(=O)NC(C)C)C1c1cccc([N+](=O)[O-])c1 (configuration not stated),133 to 136 °C
9,CN(C)C1CCN(c2nc(N3CCc4ccccc4C3)c3ncnc(N4CCOCC4)c3n2)CC1,49 to 53 °C
10,CC(C)(C)N(CC(O)CONC(=O)NC1CCCCC1)C(=O)NC1CCCCC1 (configuration not stated),151 to 152 °C
11,CCOc1c(OC)ccc2nc3[nH]cnc(=O)c3cc12,348 to 349 °C
12,Cc1cc2c(-c3cccc(/C=C/C(=O)O)c3)c(CC(=O)Nc3ccc(Cl)cc3C(F)(F)F)c(=O)oc2cc1Cl,191 to 194 °C
13,CC1CC(=O)NN=C1c1ccc(N2CCN(C(=O)NCCCc3c[nH]cn3)CC2)c([N+](=O)[O-])c1 (configuration not stated),182 °C
14,COc1ccc2oc(N(C=O)[C@@H](Cc3ccccn3)c3ncc(-c4ccc(N5CCOCC5)cc4)n3C)cc2c1,122 to 124 °C
15,Cc1c(C=O)ncn1Cc1ccccc1,107 to 110 °C
16,CN1CCN(c2ccnc3c(NC(=O)c4c(Cl)cccc4Cl)cc(Cl)cc23)C1=O,> 250 °C
17,O=C(Nc1cc2ncc(CN3CCCC3)cc2cc1F)c1ccc(-c2ccc(C(F)(F)F)cc2)cc1,209 to 212 °C
18,CCOC(=O)c1sc(SC)c2c1CCC(Br)C2=O (configuration not stated),147 to 148 °C
19,CCCCCCCCCCCCCc1cc(C(=O)O)c[nH]1,82 to 84 °C
20,O=C(O)c1ccc2c(c1)CCC(CO)O2 (configuration not stated),150 °C
21,CCc1nnc(C=Cc2ncc([N+](=O)[O-])n2C)s1,165 °C
22,N#CC1(Cl)C=C(O)C=NC1 (configuration not stated),182 to 184 °C
23,Cc1cc2c(Oc3cccc(C(F)(F)F)c3)nc(CCC(F)(F)F)nc2s1,85 °C
24,CN1CCC(c2n[nH]c3ccccc23)CC1,168 to 170 °C
